Data as given in patent US20240122917A1, “USE OF COMPOSITION CONTAINING CILOSTAZOL IN CEREBROVASCULAR DISEASES” (NEURODAWN PHARMACEUTICAL CO., LTD., priority 2021, published 2024).

Columns and labels:
[1] = system: rats with focal cerebral ischemia-reperfusion injury (MCAO rats); assay: Rat focal cerebral ischemia-reperfusion model (internal carotid artery suture method), area of cerebral infarction by TTC staining; type: in vivo, Sprague-Dawley (SD) rats; conditions: 24 hours after cerebral ischemia, mean ± SD
[2] = system: rats with focal cerebral ischemia-reperfusion injury (MCAO rats); assay: as above; type: in vivo, Sprague-Dawley (SD) rats; conditions: for Area of cerebral infarction (%): 24 hours after cerebral ischemia, mean ± SD; for area of cerebral infarction in MCAO rats (in words) / neurological deficits in MCAO rats: cilostazol at 1-15 mg/kg or edaravone at 1.67-8.33 mg/kg in the tail vein
Protocol: The experimental animals were divided into 4 groups, cilostazol group (1 mg/kg), edaravone group (5 mg/kg), cilostazol and edaravone composition group (6 mg/kg, cilostazol:edaravone=1:5, cilostazol 1 mg/kg+edaravone 5 mg/kg) and model group. After the cerebral ischemia model was established, the animals were assigned to each group in a single-blind manner with equal probability. After reperfusion, the animals were immediately administered intravenously with the drugs once. The animals in the model group were administered with an equal volume of normal saline. The animals were sacrificed 24 hours after cerebral ischemia, and their brains were taken out, stained, and photographed for determining the area of cerebral infarction.
The rat focal cerebral ischemia-reperfusion model was established by internal carotid artery suture method. The limbs (hind limbs above the knee joint and forelimbs below the wrist joint) and head of an anesthetized rat were tightened with rubber bands. The animal was fixed on an operating table in supine position, and was shaved with an animal shaver from the head to the chest, and the skin was disinfected with alcohol. The neck of the rat was cut at the midline, and the subcutaneous tissue was bluntly separated. The thin layer of fascia on the surface of the anterior triangle of the neck was separated, the lower side-lower edge of the clavicular hyoid muscle was pulled up, and the longitudinally pulsating artery parallel to this muscle can be seen. The arterial shell was opened, and the bifurcation of the right carotid artery was exposed. The right common carotid artery, external carotid artery and internal carotid artery were separated. The vagus nerve was gently stripped, and the external carotid artery was ligated and cut. The proximal end of the common carotid artery was clamped. An incision was made at the distal end from the ligature of the external carotid artery, and was inserted with a suture line, which was passed through the bifurcation of the common carotid artery into the internal carotid artery, and then was inserted slowly until reaching slight resistance (approximately 20 mm from the bifurcation), so as to block all blood supply to the middle cerebral artery. The suture line was slightly fixed below the incision of the external carotid artery with silk thread. The silk thread clamping the proximal end of the common carotid artery was loosened. A gauze soaked in sterile saline was covered on the wound, and the rat was placed on a heat preservation pad to keep warm. 2.0 h after cerebral ischemia on the right side, the suture line was pulled out gently to restore the blood supply for reperfusion. The external carotid artery was ligated with silk thread fixing the suture line. The skin was stitched, and disinfected. The rats were placed in clean feed, and their general condition and respiration were observed until they woke up from anesthesia. The rats were provided with food and water, and commonly reared.
The animals were subjected to evaluation of neurological deficit symptoms and then sacrificed with CO2. The brain was taken out by cutting off head. The olfactory bulb, cerebellum and lower brainstem were removed. The blood on the surface of the brain was washed with normal saline, and the residual water on the surface was removed. The brain was placed at −20° C. for 20 min, then taken out, immediately cut to a coronal section vertically downward at the crossing plane of the line of sight, and sliced backward every 2 mm. The brain slices were incubated in 1% TTC staining solution (at 37° C. for 30 min). The normal brain tissue was stained into dark red, and the ischemic brain tissue was stained into pale white. After being washed with normal saline, the brain slices were quickly arranged in a row from front to back, removed off the residual water on the surface, and photographed. […]

[3] = system: mice with focal cerebral ischemia-reperfusion injury (MCAO mice); assay: Mouse focal cerebral ischemia-reperfusion model (internal carotid artery suture method), area of cerebral infarction by TTC staining; type: in vivo, C57BL/6J mice; conditions: cilostazol at 3.33-16.67 mg/kg or edaravone at 3.33-16.67 mg/kg in the tail vein
Protocol: The animals were subjected to evaluation of neurological deficit symptoms and then sacrificed with CO2. The brain was taken out by cutting off head. The olfactory bulb, cerebellum and lower brainstem were removed. The blood on the surface of the brain was washed with normal saline, and the residual water on the surface was removed. The brain was placed at −20° C. for 20 min, then taken out, immediately cut to a coronal section vertically downward at the crossing plane of the line of sight, and sliced backward every 2 mm. The brain slices were incubated in 1% TTC staining solution (at 37° C. for 30 min). The normal brain tissue was stained into dark red, and the ischemic brain tissue was stained into pale white. After being washed with normal saline, the brain slices were quickly arranged in a row from front to back, removed off the residual water on the surface, and photographed.
Calculation of area of cerebral infarction: The photos were processed by Image J software, and the corresponding area of left brain and non-infarction area of right brain were calculated according to the formula, so that the percentage of the area of infarction was calculated.
The experimental animals were divided into 4 groups, a model group and three groups of compositions of cilostazol/edaravone (respectively a group of cilostazol 3.33 mg/kg+edaravone 16.67 mg/kg in 1:5; a group of cilostazol 5.71 mg/kg+edaravone 14.29 mg/kg in 1:2.5; a group of cilostazol 10 mg/kg+edaravone 10 mg/kg in 1:1, and each composition was administered at a total amount of 20 mg/kg). After the cerebral ischemia model was established, the animals were assigned to each group in a single-blind manner with equal probability. After reperfusion, the animals were immediately administered intravenously with the drugs once. The animals in the model group were administered with an equal volume of normal saline. The animals were sacrificed 24 hours after cerebral ischemia, and their brains were taken out, stained, and photographed for determining the area of cerebral infarction.
Establishment of focal cerebral ischemia-reperfusion model: The mouse focal cerebral ischemia-reperfusion model was established by internal carotid artery suture method. An anesthetized mouse was fixed on an operating table in a supine position. The neck of the mice was cut at the midline, and the subcutaneous tissue was bluntly separated. The right common carotid artery, external carotid artery, and internal carotid artery were separated. […]

plasma protein = conditions: background statement; cited from earlier work

## CC1=NN(c2ccccc2)C(=O)C1 [Edaravone, 3-methyl-1-phenyl-2-pyrazolin-5-one]
[1]; Example 3, edaravone 3 mg/kg i.v. once immediately after reperfusion, model group 39.41 ± 9.56
  Area of cerebral infarction (%): 31.24 ± 6.83 %
[2]; Example 1, edaravone 5 mg/kg i.v. once immediately after reperfusion, model group 40.35 ± 8.24
  Area of cerebral infarction (%): 29.35 ± 10.45 %
[2]; Example 2, edaravone 5 mg/kg i.v. once immediately after reperfusion, model group 40.50 ± 8.51
  Area of cerebral infarction (%): 29.49 ± 9.06 %
[2]
  area of cerebral infarction in MCAO rats (in words): reduce the area of cerebral infarction
  neurological deficits in MCAO rats: significantly ameliorate the neurological deficits
[3]
  area of cerebral infarction in MCAO mice (in words): reduce the area of cerebral infarction
  neurological deficits in MCAO mice: significantly ameliorate the neurological deficits

## O=C1CCc2cc(OCCCCc3nnnn3C3CCCCC3)ccc2N1 [Cilostazol]
Plasma protein
  binding rate to plasma protein: about 95%
[1]; Example 2, cilostazol 5 mg/kg i.v. once immediately after reperfusion, model group 40.50 ± 8.51
  Area of cerebral infarction (%): 32.59 ± 7.15 %
[1]; Example 3, cilostazol 15 mg/kg i.v. once immediately after reperfusion, model group 39.41 ± 9.56
  Area of cerebral infarction (%): 27.26 ± 9.74 %
[2]; Example 1, cilostazol 1 mg/kg i.v. once immediately after reperfusion, 2.0 h ischemia, model group 40.35 ± 8.24
  Area of cerebral infarction (%): 34.24 ± 7.25%
[2]
  area of cerebral infarction in MCAO rats (in words): reduce the area of cerebral infarction
  neurological deficits in MCAO rats: significantly ameliorate the neurological deficits
[3]
  area of cerebral infarction in MCAO mice (in words): reduce the area of cerebral infarction
  neurological deficits in MCAO mice: significantly ameliorate the neurological deficits
